One assay has as its target T1, human hNET (Homo sapiens, UniProt P23975).
T1 construct: expressed in transfected cells
Kind of assay: Norepinephrine (NE) uptake assay in MDCK-Net6 cells. Type of assay: cell-based. As to conditions: for inhibition at 1 µM: MDCK-Net6.

For assay [1], the target named is T2, human cloned 5-HT6 receptors (Homo sapiens, UniProt P50406).
T2 construct: expressed in transfected cells; host or cells: HeLa cells
Description: 5-HT6 binding affinity, [3H]-LSD displacement on membranes of Hela cells. Summed up:
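Filter-bound radioactivity counted by scintillation. Binding at varying test-compound concentrations expressed as percent of specific binding without compound and plotted log % bound versus log concentration.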

Another assay addresses human 5-HT2A receptor (Homo sapiens, UniProt P28223). Kind of assay: 5-HT2A FLIPR assay, antagonism of DOI calcium response in CHO cells. The conditions noted are these: for inhibition at 1 µM: CHO, read-out: 5-HT2A % Inhibition @ 1 uM.
[2] abbreviates: Table 1, 5-HT6 binding, at 1 micromole, read-out: % inhibition at 1 micromole.
[3] abbreviates: Table 1, [3H]-LSD 3.0 nM, Hela cell membranes, read-out: Ki (nM) @ 5-HT6 receptor.
Setting [4] is: read-out: 5-HT2A IC50, antagonism of 3 nM DOI, CHO cells, FLIPR.

Read-outs that look alike come from different tables or passages of the source.

Chain of human 5-HT2A receptor (P28223 whole entry): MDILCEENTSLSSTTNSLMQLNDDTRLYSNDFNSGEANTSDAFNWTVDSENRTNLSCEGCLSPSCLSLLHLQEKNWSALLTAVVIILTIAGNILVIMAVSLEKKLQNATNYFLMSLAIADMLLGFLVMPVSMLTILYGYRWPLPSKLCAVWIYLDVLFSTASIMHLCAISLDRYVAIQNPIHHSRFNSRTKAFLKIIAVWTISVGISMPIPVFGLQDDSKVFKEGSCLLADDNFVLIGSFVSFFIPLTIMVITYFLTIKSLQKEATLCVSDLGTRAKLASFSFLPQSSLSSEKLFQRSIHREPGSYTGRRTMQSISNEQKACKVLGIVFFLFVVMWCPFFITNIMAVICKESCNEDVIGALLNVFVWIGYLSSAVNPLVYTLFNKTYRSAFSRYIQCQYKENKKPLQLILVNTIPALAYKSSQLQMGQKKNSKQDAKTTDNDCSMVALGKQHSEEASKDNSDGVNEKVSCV
T1 sequence (P23975 whole entry): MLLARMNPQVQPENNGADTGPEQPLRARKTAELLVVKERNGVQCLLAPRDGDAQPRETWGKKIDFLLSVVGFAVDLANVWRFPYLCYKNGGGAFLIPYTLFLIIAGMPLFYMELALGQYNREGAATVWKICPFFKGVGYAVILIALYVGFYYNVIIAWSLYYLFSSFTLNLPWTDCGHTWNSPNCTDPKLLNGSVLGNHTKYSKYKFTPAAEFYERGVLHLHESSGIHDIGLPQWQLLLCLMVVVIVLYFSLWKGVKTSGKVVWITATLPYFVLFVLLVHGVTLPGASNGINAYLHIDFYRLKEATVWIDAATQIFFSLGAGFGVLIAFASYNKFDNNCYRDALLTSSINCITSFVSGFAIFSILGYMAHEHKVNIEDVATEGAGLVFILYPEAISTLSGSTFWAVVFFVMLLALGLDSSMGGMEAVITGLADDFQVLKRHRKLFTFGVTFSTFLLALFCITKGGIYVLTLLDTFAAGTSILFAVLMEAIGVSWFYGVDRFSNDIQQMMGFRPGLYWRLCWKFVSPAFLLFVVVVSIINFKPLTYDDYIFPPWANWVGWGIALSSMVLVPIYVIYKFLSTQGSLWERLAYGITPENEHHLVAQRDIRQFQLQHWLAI
T2 sequence (P50406 whole entry): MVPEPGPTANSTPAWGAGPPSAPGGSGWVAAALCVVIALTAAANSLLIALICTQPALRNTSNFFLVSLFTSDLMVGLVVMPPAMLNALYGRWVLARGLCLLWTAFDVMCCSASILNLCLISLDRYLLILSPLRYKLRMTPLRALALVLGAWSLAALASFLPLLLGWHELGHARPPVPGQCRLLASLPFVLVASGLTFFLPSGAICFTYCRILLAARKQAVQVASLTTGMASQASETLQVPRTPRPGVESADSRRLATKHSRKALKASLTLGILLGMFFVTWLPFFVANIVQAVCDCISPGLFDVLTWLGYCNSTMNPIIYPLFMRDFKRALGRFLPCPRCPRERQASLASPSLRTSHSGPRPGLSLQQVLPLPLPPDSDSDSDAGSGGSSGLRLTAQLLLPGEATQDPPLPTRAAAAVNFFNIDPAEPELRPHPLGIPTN

Usually inhibition stands for the drop in the measured response relative to a control, in per cent. What is called Ki is a measure of affinity in units of concentration, obtained from inhibition or displacement. On to `CC(C)(C)CNCCc1cccc2[nH]cc(S(=O)(=O)c3ccccc3)c12` [Example 49, N-(2,2-dimethylpropyl)-N-{2-[3-(phenylsulfonyl)-1H-indol-4-yl]ethyl}amine], for which the inhibition at 1 µM against human hNET stood at 37%; in assay [1] (setting [2]) it was 63%. Besides, the Ki in assay [1] (Table 2, read-out: 5-HT6 Ki) was 642 nM.
On to `CC1CCC[C@H](C)N1CCc1cccc2[nH]cc(S(=O)(=O)c3ccccc3)c12` (stereo in doubt) [Example 52, 4-{2-[(2R*,6S)-2,6-dimethylpiperidin-1-yl]ethyl}-3-(phenylsulfonyl)-1H-indole], for which the inhibition at 1 µM is 32% against human hNET and 16% at human 5-HT2A receptor.
As to `O=S(=O)(c1ccccc1)c1c[nH]c2cccc(CCNCC3CCCO3)c12` (centres unmarked) [Example 51, N-{2-[3-(phenylsulfonyl)-1H-indol-4-yl]ethyl}-N-((tetrahydrofur-2-yl)methyl)amine], the inhibition at 1 µM against human hNET stood at 52%; at human 5-HT2A receptor, 94%. Besides, the inhibition constant Ki in assay [1] (setting [3]) stood at 191 nM; in assay [1] (Table 2, read-out: 5-HT6 Ki), 191 nM.
Usually IC50 stands for the concentration at which inhibition is half-maximal. Compound `CCN(CC)CCc1cccc2[nH]cc(S(=O)(=O)c3ccccc3)c12` [Example 42, N,N-diethyl-N-{2-[3-(phenylsulfonyl)-1H-indol-4-yl]ethyl}amine] showed an IC50 against human hNET ([3H]NE uptake, MDCK-Net6 cells) of 241 nM. The inhibition at 1 µM in assay [1] (setting [2]) was found to be 35%; in assay [1] (Table 2, @ 1 uM, read-out: 5-HT6 % Inhibition @ 1 uM), 35%; on human 5-HT2A receptor, 99%.
`CCN(C)CCc1cccc2[nH]cc(S(=O)(=O)c3ccccc3)c12` [Example 40, N-ethyl-N-methyl-N-{2-[3-(phenylsulfonyl)-1H-indol-4-yl]ethyl}amine]: the IC50 stood at 48 nM on human hNET ([3H]NE uptake, MDCK-Net6 cells) and 832 nM on human 5-HT2A receptor (setting [4]). In addition, in assay [1] (Table 2, read-out: 5-HT6 Ki), the Ki was 354 nM. For the same compound, the inhibition at 1 µM in assay [1] (read-out: % inhibition at 1 micromole) was 52%.
As to `O=S(=O)(c1ccccc1)c1c[nH]c2cccc(CCCN3CCCCC3)c12` [Example 111, 3-(phenylsulfonyl)-4-(3-piperidin-1-ylpropyl)-1H-indole], the IC50 against human hNET ([3H]NE uptake, MDCK-Net6 cells) was found to be 932 nM; at human 5-HT2A receptor (setting [4]) it was 7970 nM.
Turning to `CN(C)CCc1cccc2[nH]cc(S(=O)(=O)c3ccccc3)c12` [Example 31, N,N-dimethyl-N-{2-[3-(phenylsulfonyl)-1H-indol-4-yl]ethyl}amine], the IC50 on human hNET ([3H]NE uptake, MDCK-Net6 cells) amounted to 80 nM; at human 5-HT2A receptor (setting [4]) it was 459 nM. Also, in assay [1] (setting [2]), the inhibition at 1 µM is 75%. For the same compound, the Ki in assay [1] (setting [3]) was found to be 142 nM; in assay [1] (Table 2, read-out: 5-HT6 Ki), 142 nM.
As to `CN(C)CCCNCCc1cccc2[nH]cc(S(=O)(=O)c3ccccc3)c12` [Example 50, N,N-dimethyl-N′-{2-[3-(phenylsulfonyl)-1H-indol-4-yl]ethyl}propane-1,3-diamine], the inhibition at 1 µM against human hNET stood at 28%. In addition, the Ki is 91.5 nM in assay [1] (setting [3]) and 92 nM in assay [1] (Table 2, read-out: 5-HT6 Ki).
For `CCN(CCc1cccc2[nH]cc(S(=O)(=O)c3ccccc3)c12)C(C)C` [Example 54, N-ethyl-N-{2-[3-(phenylsulfonyl)-1H-indol-4-yl]ethyl}propan-2-amine], the IC50 against human hNET ([3H]NE uptake, MDCK-Net6 cells) was found to be 485 nM; on human 5-HT2A receptor, 197 nM.
For the compound `CN1CCN(CCc2cccc3[nH]cc(S(=O)(=O)c4ccccc4)c23)CC1` [Example 59, 4-[2-(4-methylpiperazin-1-yl)ethyl]-3-(phenylsulfonyl)-1H-indole], it took 1300 nM to reach half-maximal inhibition against human hNET ([3H]NE uptake, MDCK-Net6 cells) (IC50). At human 5-HT2A receptor, the inhibition at 1 µM worked out at 13%.
As for `CCN(C)CCCc1cccc2[nH]cc(S(=O)(=O)c3ccccc3)c12` [Example 112, N-ethyl-N-methyl-3-[3-(phenylsulfonyl)-1H-indol-4-yl]propan-1-amine], the IC50 was 28 nM on human hNET ([3H]NE uptake, MDCK-Net6 cells) and 477 nM at human 5-HT2A receptor (setting [4]).
As for `CC(NCCc1cccc2[nH]cc(S(=O)(=O)c3ccccc3)c12)C(C)(C)C` (centres unmarked) [Example 46, N-{2-[3-(phenylsulfonyl)-1H-indol-4-yl]ethyl}-N-(1,2,2-trimethylpropyl)amine], the IC50 on human hNET ([3H]NE uptake, MDCK-Net6 cells) worked out at 2400 nM; at human 5-HT2A receptor, 24 nM. The Ki is 107 nM in assay [1] (setting [3]) and 107 nM in assay [1] (Table 2, read-out: 5-HT6 Ki).
For `NCCc1cccc2[nH]cc(S(=O)(=O)c3ccccc3)c12` [Example 61, {2-[3-(phenylsulfonyl)-1H-indol-4-yl]ethyl}amine], the IC50 against human hNET was 961 nM; on human 5-HT2A receptor it was 14000 nM. In addition, the inhibition at 1 µM in assay [1] (setting [2]) was found to be 44%. Also, the Ki was 993 nM in assay [1] (setting [3]) and 993 nM in assay [1] (Table 2, read-out: 5-HT6 Ki).
In the case of `O=S(=O)(c1ccccc1)c1c[nH]c2cccc(CCN3CCOCC3)c12` [Example 45, 4-(2-morpholin-4-ylethyl)-3-(phenylsulfonyl)-1H-indole], the inhibition at 1 µM was 28% against human hNET and 59% in assay [1] (setting [2]). Besides, in assay [1] (Table 2, read-out: 5-HT6 Ki), the Ki was found to be 767 nM.
For `CCCNCCc1cccc2[nH]cc(S(=O)(=O)c3ccccc3)c12` [Example 34, N-{2-[3-(phenylsulfonyl)-1H-indol-4-yl]ethyl}-N-propylamine], the Ki in assay [1] (setting [3]) amounted to 216 nM; in assay [1] (Table 2, read-out: 5-HT6 Ki) it was 216 nM. Besides, at human 5-HT2A receptor (setting [4]), the IC50 worked out at 1080 nM.
Turning to `CCNCCc1cccc2[nH]cc(S(=O)(=O)c3ccccc3)c12` [Example 33, N-ethyl-N-{2-[3-(phenylsulfonyl)-1H-indol-4-yl]ethyl}amine], the Ki in assay [1] (setting [3]) was 207 nM; in assay [1] (Table 2, read-out: 5-HT6 Ki) it was 207 nM. The IC50 at human 5-HT2A receptor is 1100 nM.
In the case of `O=S(=O)(c1ccccc1)c1c[nH]c2cccc(CCN3CCCC3)c12` [Example 43, 3-(phenylsulfonyl)-4-(2-pyrrolidin-1-ylethyl)-1H-indole], the Ki in assay [1] (setting [3]) was 73 nM; in assay [1] (Table 2, read-out: 5-HT6 Ki) it was 73 nM. The IC50 on human 5-HT2A receptor came out at 197 nM.
In the case of `CC(C)N(C)CCc1cccc2[nH]cc(S(=O)(=O)c3ccccc3)c12` [Example 53, N-methyl-N-{2-[3-(phenylsulfonyl)-1H-indol-4-yl]ethyl}propan-2-amine], the IC50 came to 126 nM at human hNET ([3H]NE uptake, MDCK-Net6 cells) and 628 nM on human 5-HT2A receptor.
Compound `O=S(=O)(c1ccccc1)c1c[nH]c2cccc(CCN3CCNCC3)c12` [Example 60, 3-(phenylsulfonyl)-4-(2-piperazin-1-ylethyl)-1H-indole] yielded an IC50 against human hNET ([3H]NE uptake, MDCK-Net6 cells) of 573 nM. The inhibition at 1 µM at human 5-HT2A receptor is 24%.
For `O=S(=O)(c1ccccc1)c1c[nH]c2cccc(CCN3CCCCCC3)c12` [Example 58, 4-(2-azepan-1-ylethyl)-3-(phenylsulfonyl)-1H-indole], the IC50 at human 5-HT2A receptor was found to be 90 nM.
With `CC1CCCN(CCc2cccc3[nH]cc(S(=O)(=O)c4ccccc4)c23)C1` (centres unmarked) [Example 57, 4-[2-(3-methylpiperidin-1-yl)ethyl]-3-(phenylsulfonyl)-1H-indole], on human 5-HT2A receptor, the IC50 is 72 nM.
For `CC(C)NCCCc1cccc2[nH]cc(S(=O)(=O)c3ccccc3)c12` [Example 110, N-isopropyl-3-[3-(phenylsulfonyl)-1H-indol-4-yl]propan-1-amine], the IC50 was 11 nM against human hNET ([3H]NE uptake, MDCK-Net6 cells) and 5980 nM at human 5-HT2A receptor (setting [4]).
For the compound `CC1CCCCN1CCc1cccc2[nH]cc(S(=O)(=O)c3ccccc3)c12` (centres unmarked) [Example 56, 4-[2-(2-methylpiperidin-1-yl)ethyl]-3-(phenylsulfonyl)-1H-indole], the IC50 at human 5-HT2A receptor worked out at 73 nM.
For the compound `CNCCc1cccc2[nH]cc(S(=O)(=O)c3ccccc3)c12` [Example 32, N-methyl-N-{2-[3-(phenylsulfonyl)-1H-indol-4-yl]ethyl}amine], the Ki came to 143 nM in assay [1] (setting [3]) and 143 nM in assay [1] (Table 2, read-out: 5-HT6 Ki). Moreover, the IC50 on human 5-HT2A receptor (setting [4]) is 1100 nM.
Consider `CC1CCCN1CCc1cccc2[nH]cc(S(=O)(=O)c3ccccc3)c12` (centres unmarked) [Example 55, 4-[2-(2-methylpyrrolidin-1-yl)ethyl]-3-(phenylsulfonyl)-1H-indole], for which the IC50 turned out to be 121 nM on human hNET ([3H]NE uptake, MDCK-Net6 cells) and 114 nM at human 5-HT2A receptor.

Source of the values: US7645752B2, “Sulfonyl substituted 1H-indoles as ligands for the 5-hydroxytryptamine receptors” (Wyeth LLC, priority 2006, dated 2010).
